Source: patent US9018208B2, “Heterocycles as potassium channel modulators” (Icagen Inc., priority 2007, dated 2015)

Tested on: SH-SY5Y M-currents (KCNQ2, KCNQ3 and KCNQ5)
Assay: SH-SY5Y native cell line FLIPR assay (voltage-sensitive dye DiBAC)
Format: cell-based, mouse neuroblastoma, rat glioma hybrid cell line
Details: FLIPR assay, SH-SY5Y native cell line; Table 1; read-out: SH-SY5Y EC50
Description: SH-SY5Y cells, a mouse neuroblastoma, rat glioma hybrid cell line, functionally express M-currents (Robbins et al., J. Physiol. 451: 159-85 (1992). SH-SY5Y M-currents are likely comprised, at least in part, of KCNQ2, KCNQ3 and KCNQ5, since these genes are reportedly robustly expressed in differentiated SH-SY5Y cells (Selyanko et al., J. Neurosci. 19(18): 7742-56 (1999); Schroeder et al., J. Biol. Chem. 275(31): 24089-95 (2000)) and KCNQ3 dominant-negative constructs reduce M-current density in these cells (Selyanko et al., J. Neurosci. 22(5): RC212 (2002).
SH-SY5Y were maintained in DMEM (high glucose) supplemented with 10% fetal bovine serum, 0.05 mM pyridoxine, 0.1 mM hypoxanthine, 400 nM aminopterin, […], 50 μgml^−1 gentamycin and 10 mM HEPES, in an incubator at 37° C. with a humidified atmosphere of 5% CO2. Cells were plated in 96 well plates differentiated by addition of 10 μM PGE1 and 50 μM isomethylbutylxanthine to the growth media prior to study.
Differentiated SH-SY5Y cells were loaded with voltage-sensitive dye by incubation in Earls Balanced Salt Solution (EBSS) containing […] DiBAC for 1 h. Following loading, drug solution containing […] DiBAC was added to each well. Changes in fluorescence were measured every 30 s for 25 min. The maximum change in fluorescence was measured and expressed as a percentage of the maximum response obtained in the presence of a positive control agent.

EC50, < 500 nM:
CC(C)(C)CC(=O)Nc1nc2ccc(C(F)(F)F)cn2c1C1CCCC1 [Compound 48, N-(3-cyclopentyl-6-(trifluoromethyl)imidazo[1,2-a]pyridin-2-yl)-3,3-dimethylbutanamide]
O=C(Cc1ccccc1)Nc1nc2ccc(C(F)(F)F)cn2c1C1CCCC1 [Compound 49, N-(3-cyclopentyl-6-(trifluoromethyl)imidazo[1,2-a]pyridin-2-yl)-2-phenyl acetamide]
O=C(Cc1ccc(F)cc1)Nc1nc2ccc(C(F)(F)F)cn2c1C1CCCC1 [Compound 50, N-(3-cyclopentyl-6-(trifluoromethyl)imidazo[1,2-a]pyridin-2-yl)-2-(4-fluorophenyl)acetamide]
O=C(Nc1nc2ccc(C(F)(F)F)cn2c1CC1CCCCC1)C1CCCC1 [Compound 52, N-(3-(cyclohexylmethyl)-6-(trifluoromethyl)imidazo[1,2-a]pyridin-2-yl)cyclopentanecarboxamide]
CC(C)CCc1c(NC(=O)C2CCCC2)nc2ccc(C(F)(F)F)cn12 [Compound 53, N-(3-isopentyl-6-(trifluoromethyl)imidazo[1,2-a]pyridin-2-yl)cyclopentanecarboxamide]
O=C(Nc1nc2ccc(C(F)(F)F)cn2c1C1CCCCC1)C1CCCC1 [Compound 54, N-(3-cyclohexyl-6-(trifluoromethyl)imidazo[1,2-a]pyridin-2-yl)cyclopentanecarboxamide]
O=C(Nc1nc2ccc(C(F)(F)F)cn2c1C1CCCC1)C1CCCC1 [Compound 55, N-(3-cyclopentyl-6-(trifluoromethyl)imidazo[1,2-a]pyridin-2-yl)cyclopentanecarboxamide]
CC1(CC(=O)Nc2nc3ccc(C(F)(F)F)cn3c2C2CCCC2)CCCC1 [Compound 56, N-(3-cyclopentyl-6-(trifluoromethyl)imidazo[1,2-a]pyridin-2-yl)-2-(1-methylcyclopentyl)acetamide]
CC(C)(C)Cc1c(NC(=O)CC2CC2)nc2ccc(C(F)(F)F)cn12 [Compound 57, 2-cyclopropyl-N-(3-neopentyl-6-(trifluoromethyl)imidazo[1,2-a]pyridin-2-yl)acetamide]
CCC(C)CC(=O)Nc1nc2ccc(C(F)(F)F)cn2c1CC(C)(C)C (stereo not drawn) [Compound 58, 3-methyl-N-(3-neopentyl-6-(trifluoromethyl)imidazo[1,2-a]pyridin-2-yl)pentanamide]
CC(C)(C)Cc1c(NC(=O)C2CCCCC2)nc2ccc(C(F)(F)F)cn12 [Compound 59, N-(3-neopentyl-6-(trifluoromethyl)imidazo[1,2-a]pyridin-2-yl)cyclohexanecarboxamide]
CC(C)(C)Cc1c(NC(=O)CC(F)(F)F)nc2ccc(C(F)(F)F)cn12 [Compound 60, 3,3,3-trifluoro-N-(3-neopentyl-6-(trifluoromethyl)imidazo[1,2-a]pyridin-2-yl)propanamide]
CC(C)(C)Cc1c(NC(=O)Cc2ccc(C(F)(F)F)cc2)nc2ccc(C(F)(F)F)cn12 [Compound 61, N-(3-neopentyl-6-(trifluoromethyl)imidazo[1,2-a]pyridin-2-yl)-2-(4-(trifluoromethyl)phenyl)acetamide]
CC(C)(C)CC(=O)Nc1nc2ccc(F)cn2c1CC1CCCCC1 [Compound 66, N-(3-(cyclohexylmethyl)-6-fluoroimidazo[1,2-a]pyridin-2-yl)-3,3-dimethylbutanamide]
Cc1ccc2nc(NC(=O)CC(C)(C)C)c(CC(C)(C)C)n2n1 [Compound 67, 3,3-dimethyl-N-(6-methyl-3-neopentylimidazo[1,2-b]pyridazin-2-yl)butanamide]
CC(CC(=O)Nc1nc2ccc(C(F)(F)F)cn2c1C1CC1)C(F)(F)F (stereo not drawn) [Compound 69, N-(3-cyclopropyl-6-(trifluoromethyl)imidazo[1,2-a]pyridin-2-yl)-4,4,4-trifluoro-3-methylbutanamide]
O=C(Cc1ccc(F)cc1)Nc1nc2ccc(C(F)(F)F)cn2c1C1CC1 [Compound 70, N-(3-cyclopropyl-6-(trifluoromethyl)imidazo[1,2-a]pyridin-2-yl)-2-(4-fluorophenyl)acetamide]
CC(C)(C)Cc1c(NC(=O)CC2CCCC2(F)F)nc2ccc(C(F)(F)F)cn12 (stereo not drawn) [Compound 71, 2-(2,2-difluorocyclopentyl)-N-(3-neopentyl-6-(trifluoromethyl)imidazo[1,2-a]pyridin-2-yl)acetamide]
CC(C)(C)Cc1c(NC(=O)CC2CCCC2)nc2ccc(C(F)(F)F)cn12 [Compound 72, 2-cyclopentyl-N-(3-neopentyl-6-(trifluoromethyl)imidazo[1,2-a]pyridin-2-yl)acetamide]
CC(C)(C)Cc1c(NC(=O)C2CCC(F)(F)CC2)nc2ccc(C(F)(F)F)cn12 [Compound 73, 4,4-difluoro-N-(3-neopentyl-6-(trifluoromethyl)imidazo[1,2-a]pyridin-2-yl)cyclohexanecarboxamide]
O=C(Nc1nc2ccc(C(F)(F)F)cn2c1C1CC1)C1CCC(F)(F)CC1 [Compound 75, N-(3-cyclopropyl-6-(trifluoromethyl)imidazo[1,2-a]pyridin-2-yl)-4,4-difluorocyclohexanecarboxamide]
O=C(Cc1ccc(F)c(F)c1)Nc1nc2ccc(C(F)(F)F)cn2c1C1CC1 [Compound 77, N-(3-cyclopropyl-6-(trifluoromethyl)imidazo[1,2-a]pyridin-2-yl)-2-(3,4-difluorophenyl)acetamide]
O=C(Cc1cc(F)cc(F)c1)Nc1nc2ccc(C(F)(F)F)cn2c1C1CC1 [Compound 80, N-(3-cyclopropyl-6-(trifluoromethyl)imidazo[1,2-a]pyridin-2-yl)-2-(3,5-difluorophenyl)acetamide]
O=C(Cc1ccc(F)cc1)Nc1nc2ccc(C(F)(F)F)cn2c1-c1nccs1 [Compound 84, 2-(4-fluorophenyl)-N-(3-(thiazol-2-yl)-6-(trifluoromethyl)imidazo[1,2-a]pyridin-2-yl)acetamide]

EC50, 500 to 3000 nM:
CC(C)CC(=O)Nc1nc2ccc(C(F)(F)F)cn2c1CC(C)(C)C [Compound 63, 3-methyl-N-(3-neopentyl-6-(trifluoromethyl)imidazo[1,2-a]pyridin-2-yl)butanamide]
CC(C)(C)Cc1c(NC(=O)C2CC2)nc2ccc(C(F)(F)F)cn12 [Compound 64, N-(3-neopentyl-6-(trifluoromethyl)imidazo[1,2-a]pyridin-2-yl)cyclopropanecarboxamide]
Cc1ccc2nc(NC(=O)CC(C)(C)C)c(C3CC3)n2n1 [Compound 74, N-(3-cyclopropyl-6-methylimidazo[1,2-b]pyridazin-2-yl)-3,3-dimethylbutanamide]
Cc1ccc2nc(NC(=O)C3CCC(F)(F)CC3)c(C3CC3)n2n1 [Compound 78, N-(3-cyclopropyl-6-methylimidazo[1,2-b]pyridazin-2-yl)-4,4-difluorocyclohexanecarboxamide]
O=C(Cc1ccc(F)cc1F)Nc1nc2ccc(C(F)(F)F)cn2c1C1CC1 [Compound 79, N-(3-cyclopropyl-6-(trifluoromethyl)imidazo[1,2-a]pyridin-2-yl)-2-(2,4-difluorophenyl)acetamide]
O=C(Nc1nc2ccc(C(F)(F)F)cn2c1C1CC1)C1CC1(F)F (stereo not drawn) [Compound 85, N-(3-cyclopropyl-6-(trifluoromethyl)imidazo[1,2-a]pyridin-2-yl)-2,2-difluorocyclopropanecarboxamide]
CC(CC(=O)Nc1nc2ccccn2c1CC(C)(C)C)C(F)(F)F (stereo not drawn) [Compound 86, 4,4,4-trifluoro-3-methyl-N-(3-neopentylimidazo[1,2-a]pyridin-2-yl)butanamide]

EC50, 3000 to 10000 nM:
CC(=O)Nc1nc2ccc(C(F)(F)F)cn2c1CC(C)(C)C [Compound 62, N-(3-neopentyl-6-(trifluoromethyl)imidazo[1,2-a]pyridin-2-yl)acetamide]
Cc1ccc2nc(NC(=O)CC(C)C(F)(F)F)c(C3CC3)n2n1 (stereo not drawn) [Compound 76, N-(3-cyclopropyl-6-methylimidazo[1,2-b]pyridazin-2-yl)-4,4,4-trifluoro-3-methylbutanamide]
Cc1cccc2nc(NC(=O)CC(C)(C)C)c(C3CC3)n12 [Compound 81, N-(3-cyclopropyl-5-methylimidazo[1,2-a]pyridin-2-yl)-3,3-dimethylbutanamide]
CC(C)(C)CC(=O)Nc1nc2ccc(C(F)(F)F)cn2c1-c1nccs1 [Compound 82, 3,3-dimethyl-N-(3-(thiazol-2-yl)-6-(trifluoromethyl)imidazo[1,2-a]pyridin-2-yl)butanamide]
CC(CC(=O)Nc1nc2ccc(C(F)(F)F)cn2c1-c1nccs1)C(F)(F)F (stereo not drawn) [Compound 83, 4,4,4-trifluoro-3-methyl-N-(3-(thiazol-2-yl)-6-(trifluoromethyl)imidazo[1,2-a]pyridin-2-yl)butanamide]
